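96-well plates; 48 h exposure; 5 concentrations. Endpoints by linear interpolation between flanking doses. Not reached: highest tested concentration assigned. Here, GI50 denotes the concentration required for 50% inhibition of growth. TGI denotes the concentration required for complete inhibition of growth.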
Experiments:
Experiment in all cases: NCI-60 cell line screen, 48 h
HOP-62 NSCLC = tested on: HOP-62 NSCLC
HT29 colon = tested on: HT29 colon
IGROV1 ovarian = tested on: IGROV1 ovarian
MALME-3M melanoma = tested on: MALME-3M melanoma
OVCAR-4 ovarian = tested on: OVCAR-4 ovarian
SF-539 CNS = tested on: SF-539 CNS
SK-MEL-5 melanoma = tested on: SK-MEL-5 melanoma
SN12C renal = tested on: SN12C renal
SNB-75 CNS = tested on: SNB-75 CNS
SW-620 colon = tested on: SW-620 colon

SMILES | TGI (HOP-62 NSCLC) [µM] | GI50 (HT29 colon) [µM] | TGI (IGROV1 ovarian) [µM] | TGI (MALME-3M melanoma) [µM] | GI50 (OVCAR-4 ovarian) [µM] | TGI (OVCAR-4 ovarian) [µM] | TGI (SF-539 CNS) [µM] | TGI (SK-MEL-5 melanoma) [µM] | TGI (SN12C renal) [µM] | TGI (SNB-75 CNS) [µM] | GI50 (SW-620 colon) [µM] | TGI (SW-620 colon) [µM] | GI50 (HOP-62 NSCLC) [µM] | TGI (HT29 colon) [µM] | GI50 (IGROV1 ovarian) [µM] | GI50 (MALME-3M melanoma) [µM] | GI50 (SF-539 CNS) [µM] | GI50 (SK-MEL-5 melanoma) [µM] | GI50 (SN12C renal) [µM] | GI50 (SNB-75 CNS) [µM]
O=C(/C=C\c1cccc2ccccc12)c1cccc2ccccc12 | 39.7 | 4.47 | 25.9 | 36.1 | 11.3 | 36.9 | 28 | 27.1 | > 100 | 18.6 | 2.7 | 10.6 |  |  |  |  |  |  |  | 
CC(C)(C)c1ccc(NS(=O)(=O)c2ccc3nc(NC(=O)c4cnccn4)[nH]c3c2)cc1 | 15.8 | 1.79 | 13.9 | 13.1 | 5.37 | 19.3 | 4.96 | 6.01 | 15.9 | 6.49 | 2.37 | 14.4 | 2.88 | 12.6 | 1.49 | 1.06 | 1.95 | 1.07 | 3.85 | 1.75
CC(=O)[CH-]C(=O)c1ccccc1.CC(=O)[CH-]C(=O)c1ccccc1.CC[O-].O=C1c2ccccc2C(=O)c2c1ccc(O)c2[O-].[Ti+4] | > 100 |  | > 100 | 61 |  | > 100 | > 100 | > 100 | > 100 | > 100 |  | > 100 |  | > 100 |  | 25.6 |  | 30.4 |  | 
COc1ccc(Cn2cc3c(c2-c2cc(OC)c(OC)c(OC)c2)CCc2cnoc2-3)cc1 | > 100 | 0.335 | > 100 | > 100 | 0.768 | > 100 | 2.39 | 4.99 | > 100 | 0.746 | 0.314 | > 100 | 0.446 | 10.3 | 0.394 | 0.239 | 0.283 | 0.276 | 0.715 | 0.147
Cc1cc(C(=O)c2ccccc2)c(C)c2c1[nH]c1ccc(Cl)cc12 | 23 | 0.0393 | 15.7 | 15.9 | 3.01 | 60 | 0.799 | 1.19 | 14.3 | 3.42 | 0.0497 | > 100 | 0.067 | 1.93 | 0.0657 | 0.0558 | 0.0415 | 0.068 | 0.117 | 0.025
O=NN(CCCl)C(=O)NC1CCC(CC2CCC(NC(=O)N(CCCl)N=O)CC2)CC1 (centres undefined) | 82.3 |  | > 67.8 | > 70.4 |  | > 100 | 25 | > 100 | > 73.5 | 42.5 |  | > 51.3 |  | > 100 |  |  |  |  |  | 
O=[N+]([O-])c1cccc2nccc(NCCCO)c12 | 35.4 |  | 27.5 | 22.1 |  | 23.8 | 29.4 | 14.4 | 28 | 62.6 |  | 27.6 |  | 74.1 |  |  |  |  |  | 
COc1cc(NC(=O)C2=C(N3CCOCC3)/C(=C/c3ccc(Cl)cc3)CC2)cc(OC)c1OC | 21.2 | > 100 | > 100 | > 100 | 4.27 | > 100 | > 100 | > 100 | > 100 | 33.9 | > 100 | > 100 | 4.66 | > 100 | 21.3 | > 100 | 36 | > 100 | 94.3 | 6.24
O=C1C(Cl)=C(Nc2cccc(C(F)(F)F)c2)C(=O)N1Cc1ccc(Cl)cc1 | 17.4 | 0.595 | > 48.5 | 0.741 | 5.32 | > 50.9 | 2.09 | 13.5 | 10.7 | 20 | 0.0609 | 16.9 | 0.835 | 24.9 | 2.76 | < 0.0488 | 0.128 | 0.621 | 0.545 | 1.07
Cc1ccc(-c2cc(O)c(-c3ccc(C)cc3C)cc2O)c(C)c1 | 25.9 | 4.73 | 39 | 28.2 | 4.27 | 18.5 | 23.2 | 10.2 | 18.8 | 19.7 | 5.64 | 18.5 | 11.2 | 17.1 | 8.25 | 12.9 | 10.7 | 1.11 | 5.38 | 5.46
O=S1Nc2c(Cl)cc(Cl)c(Cl)c2S1 (centres undefined) | > 100 |  | > 100 | > 100 |  | > 100 | > 100 | > 100 | > 100 | > 100 |  | 21.1 |  | > 100 |  |  |  |  |  | 
OCCN1CCN(CC/C=C2/c3ccccc3Sc3ccc(Cl)cc32)CC1 | 29.7 |  | 28.6 | 13.1 |  | 31.5 | 25.7 | 16.5 | 26 | 12.3 |  | 24.6 |  | 6.9 |  |  |  |  |  | 
CC[C@H](C)C(=O)O[C@H]1C[C@H](O)C=C2C=C[C@H](C)[C@H](CC[C@@H](O)C[C@@H](O)CC(=O)O)[C@H]21 | > 100 | > 100 | > 100 | > 100 | > 100 | > 100 | > 100 | > 100 | > 100 | > 100 | > 100 | > 100 | > 100 | > 100 | > 100 | > 100 | > 100 | > 100 | > 100 | > 100
Nc1c(C(=O)Nc2cccc(Cl)c2Cl)sc2nc3c(cc12)C(=O)CCC3 | > 100 | > 100 | > 100 | > 100 | > 100 | > 100 | > 100 | > 100 | > 100 | > 100 | 61.2 | > 100 | > 100 | > 100 | > 100 | > 100 | > 100 | 3.54 | > 100 | > 100
CC(=O)c1cc(O)c2ccccc2c1O | 41.4 | 15.5 | 29.3 | 34.2 | 14.2 | 41.6 | 40.6 | 30.2 | 36.3 | 32.8 | 18.4 | 49.2 | 17.5 | 37 | 13 | 18.2 | 22.5 | 16.3 | 17.5 | 15.7
